# Measured values from US20070128217A1 (priority 2003, published 2007).
# How the values were obtained:
# [1] = system: rabbit serum obtained by immunizing a rabbit with the SARS-CoV strain Frankfurt 1; assay type: binding; design: Binding of a rabbit serum to linear peptides / Binding of a rabbit serum to looped peptides / Rabbit serum linear peptides / Rabbit serum looped peptides / Binding of a rabbit serum to linear peptides of protein N of SARS-CoV Urbani (Rabbit serum linear peptides) / Binding of a rabbit serum to looped/cyclic peptides of protein N of SARS-CoV Urbani (Rabbit serum looped peptides): unit not given here
# [2] = system: control sera (pooled serum of ten healthy LUMC hospital workers; commercial negative donor pooled serum from the Dutch bloodbank); assay type: binding, human; design: Binding of Control serum LUMC to linear peptides / Binding of Control serum Blood-bank to linear peptides / Binding of Control serum LUMC to looped peptides / Binding of Control Serum Blood-Bank to Looped peptides / Binding of Control serum LUMC to linear peptides of the protein M of SARS-CoV Urbani / Binding of Control serum Blood-bank to linear peptides of the protein M of SARS-CoV Urbani / Binding of Control serum LUMC to looped peptides of the protein M of SARS-CoV Urbani / Binding of Control Serum Blood-Bank to Looped peptides of the protein M of SARS-CoV Urbani: unit not given here
# [3] = system: antibodies in sera from SARS patients (sera 1a, 1b, 2, 6, 37, 62, London, SARS-yellow, SARS-green); assay type: binding, human; design: Binding of serum 6 to linear peptides of protein X1 of SARS-CoV Urbani / Binding of serum 37 to linear peptides of protein X1 of SARS-CoV Urbani / Binding of serum 6 to looped/cyclic peptide (PEPSCAN-ELISA) / Binding of serum 37 to looped/cyclic peptide (PEPSCAN-ELISA) / Binding of serum 37 to looped/cyclic peptides of protein X1 of SARS-CoV Urbani / Binding of serum 6 to linear peptides of protein X2 / Binding of serum 37 to linear peptides of protein X2 / Binding of serum 37 to looped/cyclic peptides of protein X2 of SARS-CoV Urbani / Binding of serum 6 to linear peptides of protein M of SARS-CoV Urbani / Binding of serum 37 to linear peptides of protein M of SARS-CoV Urbani / Binding of serum 6 to looped/cyclic peptides of protein M of SARS-CoV Urbani / Binding of serum 37 to looped/cyclic peptides of protein M of SARS-CoV Urbani / Binding of serum 6 to linear peptides of protein X3 of SARS-CoV Urbani / Binding of serum 37 to linear peptides of protein X3 of SARS-CoV Urbani / Binding of serum 37 to looped/cyclic peptides of protein X3 of SARS-CoV Urbani / Binding of serum 6 to linear peptides of protein X4 of SARS-CoV Urbani / Binding of serum 37 to linear peptides of protein X4 of SARS-CoV Urbani / Binding of serum 37 to looped/cyclic peptides of protein X4 of SARS-CoV Urbani / Binding of serum 6 to linear peptides of protein X5 of SARS-CoV Urbani / Binding of serum 37 to linear peptides of protein X5 of SARS-CoV Urbani / Binding of serum 37 to looped/cyclic peptides of protein X5 of SARS-CoV Urbani / Binding of serum 6 to linear peptides of protein N of SARS-CoV Urbani / Binding of serum 37 to linear peptides of protein N of SARS-CoV Urbani / Binding of serum 6 to linear peptide (PEPSCAN-ELISA) / Binding of serum 1a to looped/cyclic peptides of protein N of SARS-CoV Urbani / Binding of serum 1b to looped/cyclic peptides of protein N of SARS-CoV Urbani / Binding of serum 2 to looped/cyclic peptides of protein N of SARS-CoV Urbani / Binding of serum 6 to looped/cyclic peptides of protein N of SARS-CoV Urbani / Binding of serum 37 to looped/cyclic peptides of protein N of SARS-CoV Urbani / Binding of serum 62 to looped/cyclic peptides of protein N of SARS-CoV Urbani / Binding of serum London to looped/cyclic peptides of protein N of SARS-CoV Urbani / Binding of serum SARS-green to looped/cyclic peptides of protein N of SARS-CoV Urbani: unit not given here
sequence,measurement,setting,value
MACIVGLMWLSYFVA,Rabbit serum linear peptides,[1],0.2
same,Rabbit serum looped peptides,[1],0.0
same,Binding of Control Serum Blood-Bank to Looped peptides of the protein M of SARS-CoV Urbani,[2],0.4
same,Binding of Control serum Blood-bank to linear peptides of the protein M of SARS-CoV Urbani,[2],0.5
same,Binding of Control serum LUMC to linear peptides of the protein M of SARS-CoV Urbani,[2],0.5
same,Binding of Control serum LUMC to looped peptides of the protein M of SARS-CoV Urbani,[2],0.6
same,Binding of serum 1a to linear peptides of protein M of SARS-CoV Urbani,[3],0.7
same,Binding of serum 1a to looped/cyclic peptides of protein M of SARS-CoV Urbani,[3],0.7
same,Binding of serum 1b to linear peptides of protein M of SARS-CoV Urbani,[3],0.5
same,Binding of serum 1b to looped/cyclic peptides of protein M of SARS-CoV Urbani,[3],0.4
same,Binding of serum 2 to linear peptides of protein M of SARS-CoV Urbani,[3],0.4
same,Binding of serum 2 to looped/cyclic peptides of protein M of SARS-CoV Urbani,[3],0.4
same,Binding of serum 6 to linear peptides of protein M of SARS-CoV Urbani,[3],0.3
same,Binding of serum 6 to looped/cyclic peptides of protein M of SARS-CoV Urbani,[3],0.5
same,Binding of serum 37 to linear peptides of protein M of SARS-CoV Urbani,[3],0.4
same,Binding of serum 37 to looped/cyclic peptides of protein M of SARS-CoV Urbani,[3],0.4
same,Binding of serum 62 to linear peptides of protein M of SARS-CoV Urbani,[3],0.4
same,Binding of serum 62 to looped/cyclic peptides of protein M of SARS-CoV Urbani,[3],0.5
same,Binding of serum London to linear peptides of protein M of SARS-CoV Urbani,[3],0.3
same,Binding of serum London to looped/cyclic peptides of protein M of SARS-CoV Urbani,[3],0.2
same,Binding of serum SARS-green to linear peptides of protein M of SARS-CoV Urbani,[3],0.3
same,Binding of serum SARS-green to looped/cyclic peptides of protein M of SARS-CoV Urbani,[3],0.2
same,Binding of serum SARS-yellow to linear peptides of protein M of SARS-CoV Urbani,[3],0.2
same,Binding of serum SARS-yellow to looped/cyclic peptides of protein M of SARS-CoV Urbani,[3],0.4
MAISPKFTTSLSLHK,Binding of a rabbit serum to linear peptides,[1],0.3
same,Binding of a rabbit serum to looped peptides,[1],0.6
same,Binding of Control Serum Blood-Bank to Looped peptides,[2],0.7
same,Binding of Control serum Blood-bank to linear peptides,[2],1.0
same,Binding of Control serum LUMC to linear peptides,[2],0.7
same,Binding of Control serum LUMC to looped peptides,[2],0.6
same,Binding of serum 1a to linear peptides of protein X2,[3],0.7
same,Binding of serum 1a to looped/cyclic peptides of protein X2 of SARS-CoV Urbani,[3],0.5
same,Binding of serum 1b to linear peptides of protein X2,[3],0.7
same,Binding of serum 1b to looped/cyclic peptides of protein X2 of SARS-CoV Urbani,[3],0.5
same,Binding of serum 2 to linear peptides of protein X2,[3],0.7
same,Binding of serum 2 to looped/cyclic peptides of protein X2 of SARS-CoV Urbani,[3],0.4
same,Binding of serum 6 to linear peptides of protein X2,[3],0.6
same,Binding of serum 6 to looped/cyclic peptides of protein X2 of SARS-CoV Urbani,[3],0.4
same,Binding of serum 37 to linear peptides of protein X2,[3],0.7
same,Binding of serum 37 to looped/cyclic peptides of protein X2 of SARS-CoV Urbani,[3],0.4
same,Binding of serum 62 to linear peptides of protein X2,[3],0.7
same,Binding of serum 62 to looped/cyclic peptides of protein X2 of SARS-CoV Urbani,[3],0.6
same,Binding of serum London to linear peptides of protein X2,[3],0.5
same,Binding of serum London to looped/cyclic peptides of protein X2 of SARS-CoV Urbani,[3],0.2
same,Binding of serum SARS-green to linear peptides of protein X2,[3],0.5
same,Binding of serum SARS-green to looped/cyclic peptides of protein X2 of SARS-CoV Urbani,[3],0.4
same,Binding of serum SARS-yellow to linear peptides of protein X2,[3],0.5
same,Binding of serum SARS-yellow to looped/cyclic peptides of protein X2 of SARS-CoV Urbani,[3],0.5
MEAQFLYLYALIYFL,Binding of a rabbit serum to linear peptides,[1],0.1
same,Binding of a rabbit serum to looped peptides,[1],0.5
same,Binding of Control Serum Blood-Bank to Looped peptides,[2],0.4
same,Binding of Control serum Blood-bank to linear peptides,[2],0.2
same,Binding of Control serum LUMC to linear peptides,[2],0.5
same,Binding of Control serum LUMC to looped peptides,[2],0.5
same,Binding of serum 1a to linear peptides of protein X1 of SARS-CoV Urbani,[3],0.7
same,Binding of serum 1a to looped/cyclic peptide (PEPSCAN-ELISA),[3],0.5
same,Binding of serum 1b to linear peptides of protein X1 of SARS-CoV Urbani,[3],0.6
same,Binding of serum 1b to looped/cyclic peptide (PEPSCAN-ELISA),[3],0.3
same,Binding of serum 2 to linear peptides of protein X1 of SARS-CoV Urbani,[3],0.5
same,Binding of serum 2 to looped/cyclic peptide (PEPSCAN-ELISA),[3],0.4
same,Binding of serum 6 to linear peptides of protein X1 of SARS-CoV Urbani,[3],0.4
same,Binding of serum 6 to looped/cyclic peptide (PEPSCAN-ELISA),[3],0.2
same,Binding of serum 37 to linear peptides of protein X1 of SARS-CoV Urbani,[3],0.5
same,Binding of serum 37 to looped/cyclic peptide (PEPSCAN-ELISA),[3],0.8
same,Binding of serum 62 to linear peptides of protein X1 of SARS-CoV Urbani,[3],0.4
same,Binding of serum 62 to looped/cyclic peptide (PEPSCAN-ELISA),[3],0.5
same,Binding of serum London to linear peptides of protein X1 of SARS-CoV Urbani,[3],0.2
same,Binding of serum London to looped/cyclic peptide (PEPSCAN-ELISA),[3],0.2
same,Binding of serum SARS-green to linear peptides of protein X1 of SARS-CoV Urbani,[3],0.0
same,Binding of serum SARS-green to looped/cyclic peptide (PEPSCAN-ELISA),[3],0.2
same,Binding of serum SARS-yellow to linear peptides of protein X1 of SARS-CoV Urbani,[3],0.2
same,Binding of serum SARS-yellow to looped/cyclic peptide (PEPSCAN-ELISA),[3],0.4
